Measured values published in patent publication US20050090559A1, “Heterocyclically-substituted pentanol derivatives, process for their production and their use as anti-inflammatory agents” (priority 2003, published 2005).

Target: T1, glucocorticoid receptor (GR) (Homo sapiens, UniProt P04150)
T1 construct: made in house; host or cells: Sf9 cells infected with recombinant baculovirus (cytosol preparation)
T1 sequence (P04150 1-777): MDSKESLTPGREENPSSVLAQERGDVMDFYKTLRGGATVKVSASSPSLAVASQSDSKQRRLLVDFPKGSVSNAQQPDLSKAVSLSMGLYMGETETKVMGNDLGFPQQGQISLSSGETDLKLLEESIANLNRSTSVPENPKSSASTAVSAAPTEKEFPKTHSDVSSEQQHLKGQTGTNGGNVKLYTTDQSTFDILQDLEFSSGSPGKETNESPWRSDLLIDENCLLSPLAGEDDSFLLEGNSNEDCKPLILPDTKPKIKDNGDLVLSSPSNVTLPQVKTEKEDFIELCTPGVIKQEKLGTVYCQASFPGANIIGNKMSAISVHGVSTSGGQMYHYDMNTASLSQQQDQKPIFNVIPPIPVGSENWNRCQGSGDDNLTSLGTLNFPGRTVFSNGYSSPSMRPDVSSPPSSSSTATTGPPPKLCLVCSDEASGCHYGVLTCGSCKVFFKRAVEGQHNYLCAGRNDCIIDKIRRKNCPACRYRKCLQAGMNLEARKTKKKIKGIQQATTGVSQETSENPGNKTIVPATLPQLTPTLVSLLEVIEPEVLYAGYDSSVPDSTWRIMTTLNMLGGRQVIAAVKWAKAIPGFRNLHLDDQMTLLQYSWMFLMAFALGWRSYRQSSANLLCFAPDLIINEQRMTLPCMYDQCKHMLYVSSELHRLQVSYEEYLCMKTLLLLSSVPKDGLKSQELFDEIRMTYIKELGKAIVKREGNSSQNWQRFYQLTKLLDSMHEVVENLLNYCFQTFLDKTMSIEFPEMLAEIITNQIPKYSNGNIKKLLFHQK
Experiment: Binding to recombinantly produced glucocorticoid receptor, cytosol preparations of Sf9 cells, vs [3H]-dexamethasone
Conditions: recombinant GR
From the text: The binding of the substances to the glucocorticoid receptor (GR) and other steroid hormone receptors (mineral corticoid receptor (MR), progesterone receptor (PR) and androgen receptor (AR)) is examined with the aid of recombinantly produced receptors. Cytosol preparations of Sf9 cells, which had been infected with recombinant baculoviruses, which code for the GR, are used for the binding studies. In comparison to reference substance [^3H]-dexamethasone, the substances show a high to very high affinity to GR.
Moreover, the compounds of formula (I) substituted by quinazolines, quinoxalines, cinnolines, indazoles, phthalazines, naphthyridines, benzothiazoles, dihydroindolones, dihydroisoindolones, benzimidazoles and indoles that are described here show a high selectivity for the glucocorticoid receptor.

Compound `COc1ccc(F)cc1C(C)(C)CC(O)(CNc1cccc2nc(C)ncc12)C(F)(F)F` (centres unmarked) [Example 2, 4-(5-Fluoro-2-methoxyphenyl)-4-methyl-1-(2-methylquinazolin-5-ylamino)-2-(trifluoromethyl)-pentan-2-ol] has an IC50 of 1.8 nM.

Compound `COc1cc(Cl)ccc1C(C)(C)CC(O)(CNc1ccnc2nc(C)ccc12)C(F)(F)F` (centres unmarked) [Example 52, 4-(4-Chloro-2-methoxyphenyl)-4-methyl-1-(2-methyl-1,8-naphthyridin-5-ylamino)-2-(trifluoromethyl)pentan-2-ol] has an IC50 of 10 nM.
